According to ChEMBL document CHEMBL5390277, “Development of N-Terminally Modified Variants of the CXCR4-Antagonistic Peptide EPI-X4 for Enhanced Plasma Stability” (J Med Chem, 2023):
Peptide text beside a SMILES is read from it.

Columns and labels:
[1] = test system: Human immunodeficiency virus 1; assay: Antiviral activity against HIV-1 NL4-3 infected in human TZM-bl cells assessed as inhibition of viral replication preincubated for 15 mins followed by viral infection and measured after 4320 mins by beta-gal screening assay; type: functional, organism-based; details: Human immunodeficiency virus 1, NL4-3, TZM
[2] = target: T1, C-X-C chemokine receptor type 4 (Homo sapiens, UniProt P61073); assay: Antagonist activity at CXCR4 in human SUP-T1 cells assessed as inhibition of CXCL12-induced ERK phosphorylation preincubated with 15 mins followed by CXCL12 stimulation and measured after 12 mins by flow cytometry analysis; type: functional, cell-based
[3] = target: T1, C-X-C chemokine receptor type 4; assay: Displacement of 12G5 mAb from CXCR4 in human SUP-T1 cells incubated for 2 hrs by flow cytometry analysis; type: cell-based

T1 sequence (P61073 whole entry): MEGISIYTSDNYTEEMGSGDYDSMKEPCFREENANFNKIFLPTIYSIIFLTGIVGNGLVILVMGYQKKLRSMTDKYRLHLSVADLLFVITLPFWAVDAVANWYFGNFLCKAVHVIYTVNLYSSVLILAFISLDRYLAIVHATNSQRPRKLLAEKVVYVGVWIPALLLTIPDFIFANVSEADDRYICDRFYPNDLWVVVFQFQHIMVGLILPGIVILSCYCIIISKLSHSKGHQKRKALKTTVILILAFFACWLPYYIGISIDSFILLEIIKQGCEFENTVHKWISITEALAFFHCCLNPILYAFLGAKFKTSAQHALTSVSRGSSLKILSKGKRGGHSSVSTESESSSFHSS

Row | SMILES | IC50 [1] [µM] | IC50 [2] [µM] | IC50 [3] [µM]
1 | CSCC[C@H](NC(=O)[C@H](CCCCN)NC(=O)[C@H](CCCNC(=N)N)NC(=O)[C@H](CO)NC(=O)[C@H](Cc1c[nH]c2ccccc12)NC(=O)[C@H](CCCNC(=N)N)NC(=O)[C@H](CC(C)C)NC(=O)[C@H](N)Cc1ccccc1)C(=O)N1CCC[C@H]1C(=O)N[C@@H](CS)C(=O)N[C@H](C(=O)N[C@@H](CO)C(=O)O)C(C)C | 0.817 | > 100 | 1.44
2 | CSCC[C@H](NC(=O)[C@H](CCCCN)NC(=O)[C@H](CCCNC(=N)N)NC(=O)[C@H](CO)NC(=O)[C@H](Cc1c[nH]c2ccccc12)NC(=O)[C@H](CCCNC(=N)N)NC(=O)[C@H](CC(C)C)NC(=O)[C@H](CO)NC(C)=O)C(=O)N1CCC[C@H]1C(=O)N[C@@H](CS)C(=O)N[C@H](C(=O)N[C@@H](CO)C(=O)O)C(C)C | 4.06 | > 100 | 16.3
3 | CSCC[C@H](NC(=O)CN)C(=O)N[C@@H](CCCNC(=N)N)C(=O)N[C@@H](Cc1c[nH]c2ccccc12)C(=O)N[C@@H](CO)C(=O)N[C@@H](CCCNC(=N)N)C(=O)N[C@@H](CCCCN)C(=O)N[C@@H](CCSC)C(=O)N1CCC[C@H]1C(=O)N[C@@H](CS)C(=O)N[C@H](C(=O)N[C@@H](CO)C(=O)O)C(C)C (H-GMRWSRKMPCVS-OH) | 6.67 | > 100 | 8.73
4 | CSCC[C@H](NC(C)=O)C(=O)N[C@@H](CC(C)C)C(=O)N[C@@H](CCCNC(=N)N)C(=O)N[C@@H](Cc1c[nH]c2ccccc12)C(=O)N[C@@H](CO)C(=O)N[C@@H](CCCNC(=N)N)C(=O)N[C@@H](CCCCN)C(=O)N[C@@H](CC(C)C)C(=O)N1CCC[C@H]1C(=O)N[C@@H](CS)C(=O)N[C@H](C(=O)N[C@@H](CO)C(=O)O)C(C)C | > 10 |  | 
5 | CC(C)C[C@H](NC(=O)[C@@H](NC(=O)[C@@H]1CCCN1C(=O)[C@@H](NC(=O)[C@H](CO)NC(=O)[C@@H](NC(=O)[C@H](CCC(N)=O)NC(=O)[C@@H]1CCCN1C(=O)[C@@H](NC(=O)[C@H](CCCCN)NC(=O)[C@H](CCCCN)NC(=O)[C@@H](NC(=O)[C@H](Cc1ccc(O)cc1)NC(=O)[C@H](CCCNC(=N)N)NC(=O)[C@@H](NC(=O)[C@@H](N)CC(C)C)C(C)C)[C@@H](C)O)C(C)C)C(C)C)[C@@H](C)O)[C@@H](C)O)C(=O)O (H-LVRYTKKVPQVSTPTL-OH) | > 10 | > 100 | 2.6
6 | CSCC[C@@H](NC(C)=O)C(=O)N[C@@H](CC(C)C)C(=O)N[C@@H](CCCNC(=N)N)C(=O)N[C@@H](Cc1c[nH]c2ccccc12)C(=O)N[C@@H](CO)C(=O)N[C@@H](CCCNC(=N)N)C(=O)N[C@@H](CCCCN)C(=O)N[C@@H](CC(C)C)C(=O)N1CCC[C@H]1C(=O)N[C@@H](CS)C(=O)N[C@H](C(=O)N[C@@H](CO)C(=O)O)C(C)C | > 10 |  | 

Other lines, results leading:

Row | IC50 [1] [µM] | IC50 [2] [µM] | IC50 [3] [µM] | SMILES
7 | 0.934 | > 100 | 0.991 | CC[C@H](C)[C@H](N)C(=O)N[C@H](CC(C)C)C(=O)N[C@@H](CCCNC(=N)N)C(=O)N[C@@H](Cc1c[nH]c2ccccc12)C(=O)N[C@@H](CO)C(=O)N[C@@H](CCCNC(=N)N)C(=O)N[C@@H](CCCCN)C(=O)N[C@@H](CCSC)C(=O)N1CCC[C@H]1C(=O)N[C@@H](CS)C(=O)N[C@H](C(=O)N[C@@H](CO)C(=O)O)C(C)C
8 |  |  | 0.824 | CSCC[C@H](NC(=O)[C@H](CCCCN)NC(=O)[C@H](CCCNC(=N)N)NC(=O)[C@H](CO)NC(=O)[C@H](Cc1c[nH]c2ccccc12)NC(=O)[C@H](CCCNC(=N)N)NC(=O)[C@@H](CC(C)C)NC(=O)[C@@H](N)CCSC)C(=O)N1CCC[C@H]1C(=O)N[C@@H](CS)C(=O)N[C@H](C(=O)N[C@@H](CO)C(=O)O)C(C)C
9 | 0.696 |  | 0.921 | CC(C)C[C@H](NC(=O)[C@H](N)C(C)C)C(=O)N[C@@H](CCCNC(=N)N)C(=O)N[C@@H](Cc1c[nH]c2ccccc12)C(=O)N[C@@H](CO)C(=O)N[C@@H](CCCNC(=N)N)C(=O)N[C@@H](CCCCN)C(=O)N[C@@H](CC(C)C)C(=O)N1CCC[C@H]1C(=O)N[C@@H](CS)C(=O)N[C@H](C(=O)N[C@@H](CO)C(=O)O)C(C)C
